Measurements reported in ChEMBL document CHEMBL3822364, “Synthesis, characterization and antimicrobial activity of novel Schiff base tethered boronate esters of 1,2-O-isopropylidene-α-d-xylofuranose” (2016).
Converted amounts (≈) assume the structure as drawn. The source made the active and inactive calls. The rule behind the calls is not given here.

Legend:
Streptococcus mutans [1] = test: Antibacterial activity against Streptococcus mutans MTCC 497 assessed as zone of inhibition at 100 ug/well measured after 24 hrs by agar well diffusion method; format: functional; conditions: MTCC 497, 24 h, read-out: DIZ
Micrococcus luteus [2] = test: Antibacterial activity against Micrococcus luteus MTCC 106 assessed as zone of inhibition at 100 ug/well measured after 24 hrs by agar well diffusion method; format: functional; conditions: MTCC 106, 24 h, read-out: DIZ
Staphylococcus aureus [3] = test: Antibacterial activity against Staphylococcus aureus MTCC 3160 assessed as zone of inhibition at 100 ug/well measured after 24 hrs by agar well diffusion method; format: functional; conditions: MTCC 3160, 24 h, read-out: DIZ
Salmonella paratyphi [4] = test: Antibacterial activity against Salmonella paratyphi assessed as zone of inhibition at 100 ug/well measured after 24 hrs by agar well diffusion method; format: functional, Salmonella enterica subsp. enterica serovar Paratyphi A; conditions: Salmonella enterica, read-out: DIZ
Salmonella typhi [5] = test: Antibacterial activity against Salmonella typhi assessed as zone of inhibition at 100 ug/well measured after 24 hrs by agar well diffusion method; format: functional, Salmonella enterica subsp. enterica serovar Typhi; conditions: Salmonella enterica, read-out: DIZ
Klebsiella pneumoniae [6] = test: Antibacterial activity against Klebsiella pneumoniae MTCC 3384 assessed as zone of inhibition at 100 ug/well measured after 24 hrs by agar well diffusion method; format: functional; conditions: MTCC 3384, 24 h, read-out: DIZ
Candida albicans [7] = test: Antifungal activity against Candida albicans MTCC 3017 assessed as zone of inhibition at 100 ug/well measured after 48 hrs by agar well diffusion method; format: functional; conditions: MTCC 3017, 48 h, read-out: DIZ
Aspergillus fumigatus [8] = test: Antifungal activity against Aspergillus fumigatus MTCC 343 assessed as zone of inhibition at 100 ug/well measured after 48 hrs by agar well diffusion method; format: functional; conditions: MTCC 343, 48 h, read-out: DIZ
Streptococcus mutans [9] = test: Antibacterial activity against Streptococcus mutans MTCC 497 measured after 24 hrs by NCCL protocol based broth dilution method; format: functional
Micrococcus luteus [10] = test: Antibacterial activity against Micrococcus luteus MTCC 106 measured after 24 hrs by NCCL protocol based broth dilution method; format: functional
Staphylococcus aureus [11] = test: Antibacterial activity against Staphylococcus aureus MTCC 3160 measured after 24 hrs by NCCL protocol based broth dilution method; format: functional
Salmonella paratyphi [12] = test: Antibacterial activity against Salmonella paratyphi measured after 24 hrs by NCCL protocol based broth dilution method; format: functional, Salmonella enterica subsp. enterica serovar Paratyphi A
Salmonella typhi [13] = test: Antibacterial activity against Salmonella typhi measured after 24 hrs by NCCL protocol based broth dilution method; format: functional, Salmonella enterica subsp. enterica serovar Typhi
Klebsiella pneumoniae [14] = test: Antibacterial activity against Klebsiella pneumoniae MTCC 3384 measured after 24 hrs by NCCL protocol based broth dilution method; format: functional
Candida albicans [15] = test: Antifungal activity against Candida albicans MTCC 3017 measured after 48 hrs by NCCL protocol based broth dilution method; format: functional
Aspergillus fumigatus [16] = test: Antifungal activity against Aspergillus fumigatus MTCC 343 measured after 48 hrs by NCCL protocol based broth dilution method; format: functional
[17] = Salmonella enterica subsp. enterica serovar Paratyphi A
[18] = Salmonella enterica subsp. enterica serovar Typhi

| Compound | zone of inhibition at 100 µg/disc (Streptococcus mutans [1]) | zone of inhibition at 100 µg/disc (Micrococcus luteus [2]) | zone of inhibition at 100 µg/disc (Staphylococcus aureus [3]) | zone of inhibition at 100 µg/disc (Salmonella paratyphi [4]) | zone of inhibition at 100 µg/disc (Salmonella typhi [5]) | zone of inhibition at 100 µg/disc (Klebsiella pneumoniae [6]) | zone of inhibition at 100 µg/disc (Candida albicans [7]) | zone of inhibition at 100 µg/disc (Aspergillus fumigatus [8]) | MIC (Streptococcus mutans [9]; MTCC 497, 24 h) | MIC (Micrococcus luteus [10]; MTCC 106, 24 h) | MIC (Staphylococcus aureus [11]; MTCC 3160, 24 h) | MIC (Salmonella paratyphi [12]; Salmonella enterica) | MIC (Salmonella typhi [13]; Salmonella enterica) | MIC (Klebsiella pneumoniae [14]; MTCC 3384, 24 h) | MIC (Candida albicans [15]; MTCC 3017, 48 h) | MIC (Aspergillus fumigatus [16]; MTCC 343, 48 h) | further results |
| --- | --- | --- | --- | --- | --- | --- | --- | --- | --- | --- | --- | --- | --- | --- | --- | --- | --- |
| CC1(C)O[C@H]2O[C@@H]3COB(c4cccc(N)c4)O[C@@H]3[C@H]2O1 | 17 mm | 13 mm | 12 mm | 13 mm | 11 mm | 12 mm | 13 mm | 0 mm | 125 mg/L (≈ 429 µM) | 250 mg/L (≈ 859 µM) | 500 mg/L (≈ 1720 µM) | 500 mg/L (≈ 1720 µM) | 500 mg/L (≈ 1720 µM) | 500 mg/L (≈ 1720 µM) | 500 mg/L (≈ 1720 µM) | 500 mg/L (≈ 1720 µM) |  |
| Cc1ccc(/N=C/c2ccc(B3OC[C@H]4O[C@@H]5OC(C)(C)O[C@@H]5[C@H]4O3)cc2)cc1 | 17 mm | 12 mm | 17 mm | 0 mm | 18 mm | 24 mm | 12 mm | 0 mm | 125 mg/L (≈ 318 µM) | 125 mg/L (≈ 318 µM) | 125 mg/L (≈ 318 µM) | 500 mg/L (≈ 1270 µM) | 125 mg/L (≈ 318 µM) | 62.5 mg/L (≈ 159 µM) | 250 mg/L (≈ 636 µM) | 500 mg/L (≈ 1270 µM) |  |
| COc1ccc(/N=C/c2ccc(B3OC[C@H]4O[C@@H]5OC(C)(C)O[C@@H]5[C@H]4O3)cc2)cc1 | 12 mm | 11 mm | 11 mm | 13 mm | 19 mm | 18 mm | 17 mm | 0 mm | 250 mg/L (≈ 611 µM) | 250 mg/L (≈ 611 µM) | 500 mg/L (≈ 1220 µM) | 250 mg/L (≈ 611 µM) | 125 mg/L (≈ 305 µM) | 125 mg/L (≈ 305 µM) | 125 mg/L (≈ 305 µM) | 500 mg/L (≈ 1220 µM) |  |
| CC1(C)O[C@H]2O[C@@H]3COC(c4cccc(C=O)c4)O[C@@H]3[C@H]2O1 (stereo not given in full) | 0 mm | 0 mm | 0 mm | 0 mm | 0 mm | 0 mm | 0 mm | 0 mm |  |  |  |  |  |  |  |  | MIC (Streptococcus mutans [9]): inactive; MIC (Micrococcus luteus [10]): inactive; MIC (Staphylococcus aureus [11]): inactive; MIC (Salmonella paratyphi [12]; [17]): inactive; MIC (Salmonella typhi [13]; [18]): inactive; MIC (Klebsiella pneumoniae [14]): inactive; MIC (Candida albicans [15]): inactive; MIC (Aspergillus fumigatus [16]): inactive |
| COc1ccc(/C=N/c2cccc(B3OC[C@H]4O[C@@H]5OC(C)(C)O[C@@H]5[C@H]4O3)c2)c(O)c1 | 22 mm | 21 mm | 15 mm | 0 mm | 21 mm | 19 mm | 13 mm | 0 mm | 62.5 mg/L (≈ 147 µM) | 62.5 mg/L (≈ 147 µM) | 125 mg/L (≈ 294 µM) | 250 mg/L (≈ 588 µM) | 62.5 mg/L (≈ 147 µM) | 62.5 mg/L (≈ 147 µM) | 250 mg/L (≈ 588 µM) | 250 mg/L (≈ 588 µM) |  |
| CC1(C)O[C@H]2O[C@@H]3COB(c4cccc(/N=C/c5ccccc5O)c4)O[C@@H]3[C@H]2O1 | 20 mm | 22 mm | 13 mm | 13 mm | 22 mm | 16 mm | 14 mm | 0 mm | 62.5 mg/L (≈ 158 µM) | 62.5 mg/L (≈ 158 µM) | 250 mg/L (≈ 633 µM) | 250 mg/L (≈ 633 µM) | 62.5 mg/L (≈ 158 µM) | 125 mg/L (≈ 316 µM) | 125 mg/L (≈ 316 µM) | 500 mg/L (≈ 1270 µM) |  |
| Cc1ccccc1B1OC[C@H]2O[C@@H]3OC(C)(C)O[C@@H]3[C@H]2O1 | 9 mm | 6 mm | 7 mm | 6 mm | 7 mm | 6 mm | 7 mm | 6 mm | 125 mg/L (≈ 431 µM) | 250 mg/L (≈ 862 µM) | 250 mg/L (≈ 862 µM) | 125 mg/L (≈ 431 µM) | 250 mg/L (≈ 862 µM) | 250 mg/L (≈ 862 µM) | 500 mg/L (≈ 1720 µM) | 500 mg/L (≈ 1720 µM) |  |
| CC1(C)O[C@H]2O[C@@H]3COC(c4ccc(C=O)cc4)O[C@@H]3[C@H]2O1 (stereo not given in full) | 0 mm | 0 mm | 0 mm | 0 mm | 0 mm | 0 mm | 0 mm | 0 mm |  |  |  |  |  |  |  |  | MIC (Streptococcus mutans [9]): inactive; MIC (Micrococcus luteus [10]): inactive; MIC (Staphylococcus aureus [11]): inactive; MIC (Salmonella paratyphi [12]; [17]): inactive; MIC (Salmonella typhi [13]; [18]): inactive; MIC (Klebsiella pneumoniae [14]): inactive; MIC (Candida albicans [15]): inactive; MIC (Aspergillus fumigatus [16]): inactive |
| CC1(C)O[C@H]2O[C@@H]3COB(c4cccc(/N=C/c5ccc(Br)cc5O)c4)O[C@@H]3[C@H]2O1 | 17 mm | 21 mm | 13 mm | 14 mm | 24 mm | 12 mm | 17 mm | 0 mm | 125 mg/L (≈ 264 µM) | 62.5 mg/L (≈ 132 µM) | 250 mg/L (≈ 527 µM) | 250 mg/L (≈ 527 µM) | 31.2 mg/L (≈ 65.9 µM) | 125 mg/L (≈ 264 µM) | 125 mg/L (≈ 264 µM) | 500 mg/L (≈ 1050 µM) |  |
| Cc1ccc(/N=C/c2cccc(B(O)O)c2)cc1 | 9 mm | 0 mm | 8 mm | 0 mm | 8 mm | 0 mm | 0 mm | 0 mm | 250 mg/L (≈ 1050 µM) | 500 mg/L (≈ 2090 µM) | 500 mg/L (≈ 2090 µM) | 500 mg/L (≈ 2090 µM) | 500 mg/L (≈ 2090 µM) | 500 mg/L (≈ 2090 µM) | 500 mg/L (≈ 2090 µM) | 500 mg/L (≈ 2090 µM) |  |
